Measurements taken from patent publication US20130040882A1, “USE OF FIBROBLAST GROWTH FACTOR FRAGMENTS” (NOVARTIS AG, priority 2003, published 2013).
Like-named read-outs stand apart in the source and are kept apart here.

System: transcript levels in tissues (GH/IGF and glucagon/insulin axes, SSTR signalling)
Type: in vivo, cynomolgus monkeys

cyclo[4-(NH2—C2H4—NH—CO—O)Pro-Phg-DTrp-Lys-Tyr(4-Bzl)-Phe] [SOM230]
Calcium/calmodulin-dependent protein kinase (CaM kinase) II β expression ↑ (fold change) (spleen): II β ↑ x2 | Calmodulin 1 (phosphorylase kinase, δ) expression ↑ (fold change) (spleen): kinase, δ) ↑ x2 | Calmodulin 2 (phosphorylase kinase, δ) expression ↑ (fold change) (spleen): kinase, δ) ↑ x1.5 | Caspase 8, apoptosis-related cysteine protease expression ↑ (fold change) (spleen): ↑ x2.5 | Cdk 2 expression ↑ (fold change) (spleen): Cdk 2 ↑ x1.5 | Cdk 5, regulatory subunit 1 (p35) expression ↑ (fold change) (spleen): 1 (p35) ↑ x2 | Cdk 6 expression ↑ (fold change) (spleen): Cdk 6 ↑ x3 | Cyclin D2 expression ↑ (fold change) (spleen): x1.5 | Cyclin I expression ↓ (fold change) (spleen): Cyclin I ↓ x1.5 | Death-associated protein expression ↑ (fold change) (spleen): protein ↑ x1.5 | Dopamine receptor D4 expression ↓ (fold change) (spleen): receptor D4 ↓ x2 | EGF (β-urogastrone) expression ↓ (fold change) (spleen): urogastrone) ↓ x2 | Follistatin-like 1 expression ↑ (fold change) (spleen): ↑ x1.5 | Gastric inhibitory polypeptide receptor expression ↑ (fold change) (spleen): ↑ x2 | Gene expression (AvgDiff): IGF-1 (spleen): 85 | Gene expression (AvgDiff): IGFBP6 (spleen): 1,043 | Gene expression (AvgDiff): SSTR2 (spleen): 93 | HGF activator inhibitor precursor expression ↑ (fold change) (spleen): x1.5 | IFN regulatory factor 2 expression ↑ (fold change) (spleen): factor 2 ↑ x3.5 | IFN-inducible RNA-dependent protein kinase expression ↑ (fold change) (spleen): ↑ x2.5 | IFNγ receptor 2 (IFNγ transducer 1) expression ↑ (fold change) (spleen): x1.5 | IFNγ responsive transcript expression ↑ (fold change) (spleen): ↑ x2 | IGF-1 expression ↑ (fold change) (spleen): IGF-1 ↑ x1.5 | IGFBP6 expression ↑ (fold change) (spleen): IGFBP6 ↑ x2.5 | IL 1 receptor-like 1 expression ↑ (fold change) (spleen): 1 ↑ x2 | IL-8 receptor type B expression ↑ (fold change) (spleen): B ↑ x1.5 | IP-4-phosphatase, type 1, isoform b expression ↑ (fold change) (spleen): ↑ x2 | K+ large conductance Ca++-activated channel, subfamily M, β member 1 expression ↑ (fold change) (spleen): ↑ x2.5 | K+ voltage-gated channel, shaker-related subfamily, member 3 expression ↓ (fold change) (spleen): member 3 ↓ x3 | LTb4 (chemokine rceptor-like 1) expression ↑ (fold change) (spleen): rceptor-like 1) ↑ x3 | Nuclear factor of activated T-cells, cytoplasmic, calcineurin-dependent 1 expression ↓ (fold change) (spleen): dependent 1 ↓ x5 | PDGF, α polypeptide expression ↑ (fold change) (spleen): polypeptide ↑ x2.5 | PDGFR, α polypeptide expression ↑ (fold change) (spleen): polypeptide ↑ x1.5 | PI-3-kinase, catalytic, α polypeptide expression ↓ (fold change) (spleen): polypeptide ↓ x2.5 | PI-3-kinase, class 2, β polypeptide expression ↑ (fold change) (spleen): ↑ x1.5 | PI-3-kinase, class 3 expression ↑ (fold change) (spleen): 3 ↑ x2 | PKC, α binding protein expression ↑ (fold change) (spleen): protein ↑ x2 | PLA2 expression ↑ (fold change) (spleen): PLA2 ↑ x2 | PTHR 1 expression ↓ (fold change) (spleen): PTHR 1 ↓ x2.5 | Phosphatidyl inositol glycan, class B expression ↑ (fold change) (spleen): B ↑ x1.5 | Programmed cell death 10 expression ↑ (fold change) (spleen): death 10 ↑ x1.5 | Putative chemokine receptor; GTP-binding protein expression ↑ (fold change) (spleen): ↑ x2.5 | Rb binding protein expression ↑ (fold change) (spleen): ↑ x2 | Rb-binding protein 8 expression ↑ (fold change) (spleen): 8 ↑ x1.5 | S-phase kinase-associated protein 1A (p19A) expression ↑ (fold change) (spleen): 1A (p19A) ↑ x2 | SSTR2 expression ↑ (fold change) (spleen): SSTR2 ↑ x2 | Solute carrier family 9 (Na+/H+ exchanger) isoform 3 regulatory factor 1 expression ↑ (fold change) (spleen): ↑ x10.5 | TGF induced protein expression ↑ (fold change) (spleen): protein ↑ x1.5 | TGFβ receptor III (betaglycan, 300 kD) expression ↓ (fold change) (spleen): ↓ x1.5 | TNF (cachectin) expression ↑ (fold change) (spleen): ↑ x2 | TNF (ligand) superfamily, member 13 expression ↑ (fold change) (spleen): member 13 ↑ x2.5 | TNFR superfamily, member 12 expression ↑ (fold change) (spleen): member 12 ↑ x1.5 | Tumour protein p53-binding protein expression ↑ (fold change) (spleen): ↑ x1.5 | VEGF expression ↑ (fold change) (spleen): VEGF ↑ x1.5 | Vasodilatator-stimulated phosphoprotein expression ↑ (fold change) (spleen): phosphoprotein ↑ x2 | β adrenergic receptor kinase 1 expression ↑ (fold change) (spleen): kinase 1 ↑ x3 | S-phase kinase-associated protein 1A expression ↑ (fold change) (spleen, second entry, without (p19A)): 1A ↑ x2 | ATPase, Ca++ transporting, cardiac muscle, fast twitch 1 expression ↓ (fold change) (thyroid): ↓ x4.5 | Adenylate cyclase activating polypeptide precursor expression ↓ (fold change) (thyroid): x1.5 | Adrenergic, α-2C-, receptor expression ↓ (fold change) (thyroid): ↓ x2.5 | Bcl-2 binding component 3 expression ↓ (fold change) (thyroid): ↓ x2 | Brain cannabinoid receptor 1 expression ↓ (fold change) (thyroid): ↓ x2 | CD2 antigen (cytoplasmic tail)-binding protein 2 expression ↑ (fold change) (thyroid): ↑ x3.5 | CD2 antigen (p50), sheep red blood cell receptor expression ↓ (fold change) (thyroid): ↓ x7.5 | COL1A1 and PDGFB fusion transcript expression ↓ (fold change) (thyroid): transcript ↓ x6 | Cadherin 13, H-cadherin (heart) expression ↑ (fold change) (thyroid): ↑ x2 | Calcium/calmodulin dependent protein kinase 1 expression ↓ (fold change) (thyroid): ↓ x2 | Calcium/calmodulin-dependent PK IV expression ↓ (fold change) (thyroid): IV ↓ x7.5 | Calmodulin-dependent PK IV (CaM-kinase IV) expression ↓ (fold change) (thyroid): IV) ↓ x7.5 | Cannabinoid receptor 2 (macrophage) expression ↑ (fold change) (thyroid): ↑ x3 | Cdc-like 5 (cholinesterase-related cell division controller) expression ↓ (fold change) (thyroid): x2 | Cdk 5, regulatory subunit 1 (p35) expression ↓ (fold change) (thyroid): subunit 1 (p35) ↓ x5 | Cdk (CDC2-like) expression ↓ (fold change) (thyroid): Cdk (CDC2-like) ↓ x9 | Chemokine (C-X-C motif), receptor 4 (fusin) expression ↓ (fold change) (thyroid): ↓ x3 | Chole-cystokinin B receptor expression ↓ (fold change) (thyroid): receptor ↓ x3 | Cyclin B2 expression ↓ (fold change) (thyroid): Cyclin B2 ↓ x2.5 | DAG 1 kinase, α (80 kD) expression ↓ (fold change) (thyroid): (80 kD) ↓ x4 | Egf-like module containing, mucin-like, hormone receptor-like sequence 1 expression ↓ (fold change) (thyroid): sequence 1 ↓ x5 | FKBP-associated protein expression ↓ (fold change) (thyroid): protein ↓ x2.5 | Flt3 ligand expression ↓ (fold change) (thyroid): Flt3 ligand ↓ x4.5 | Fms-related tyrosine kinase 1(VEGF/vascular permeability factor receptor) expression ↓ (fold change) (thyroid): ↓ x2 | GABA (A) receptor, γ2 precursor expression ↓ (fold change) (thyroid): ↓ x1.5 | GABA (B) receptor 1, isoform a precursor expression ↑ (fold change) (thyroid): ↑ x2.5 | Gastric inhibitory polypeptide 1 receptor expression ↓ (fold change) (thyroid): receptor ↓ x2 | Gene expression (AvgDiff): IGF-1 (thyroid): 58 | Glutamate receptor, metabotropic 2 precursor expression ↓ (fold change) (thyroid): precursor ↓ 3.5 | Growth arrest-specific 1 expression ↓ (fold change) (thyroid): 1 ↓ x2.5 | IFNα-inducible protein 27 expression ↑ (fold change) (thyroid): 27 ↑ x3 | IFNγ responsive transcript expression ↓ (fold change) (thyroid): ↓ x1.5 | IFNγ-inducible protein 30 expression ↑ (fold change) (thyroid): protein 30 ↑ x3.5 | IGF-1 expression ↓ (fold change) (thyroid): IGF-1 ↓ x1.5 | IL2-inducible T-cell kinase expression ↓ (fold change) (thyroid): ↓ x12 | IL9 receptor expression ↓ (fold change) (thyroid): IL9 receptor ↓ x2 | IP3 receptor type 3 expression ↓ (fold change) (thyroid): type 3 ↓ x1.5 | K+ voltage-gated channel, shaker-related subfamily, member 3 expression ↓ (fold change) (thyroid): ↓ x4.5 | LTB4 receptor (chemokine receptor-like 1) expression ↓ (fold change) (thyroid): ↓ x1.5 | Lymphocyte specific protein tyrosine kinase expression ↓ (fold change) (thyroid): ↓ x4 | P56lck expression ↓ (fold change) (thyroid): P56lck ↓ x18 | PDGF-associated Protein expression ↑ (fold change) (thyroid): Protein ↑ x2 | PDGFR α expression ↓ (fold change) (thyroid): ↓ x3 | PDGFR β expression ↑ (fold change) (thyroid): ↑ x2 | PIP 5-phosphatase type IV expression ↓ (fold change) (thyroid): type IV ↓ x3 | PLC, γ1 (formerly subtype 148) expression ↓ (fold change) (thyroid): ↓ x2 | Phosphatidyl ethanolamine N-methyltransferase expression ↑ (fold change) (thyroid): ↑ x2 | Pro-platelet basic protein (includes platelet basic protein, β-thromboglobulin, connective tissue-activating peptide III, neu) 2 expression ↑ (fold change) (thyroid): 2 ↑ x3.5 | RAG1 expression ↓ (fold change) (thyroid): RAG1 ↓ x18 | RAG2 expression ↓ (fold change) (thyroid): RAG2 ↓ x5 | RANTES expression ↑ (fold change) (thyroid): RANTES ↑ x10.5 | SH2 domain protein 1A, Duncan's disease (lymphoproliferative syndrome) expression ↓ (fold change) (thyroid): ↓ x7.5 | Signalling lymphocytic activation molecule expression ↓ (fold change) (thyroid): ↓ x4.5 | Solute carrier family 21 (PG transporter), member 2 expression ↑ (fold change) (thyroid): member 2 ↑ x2 | TCR ζ chain precursor expression ↓ (fold change) (thyroid): ↓ x5.5 | TNF (ligand) superfamily, member 10 expression ↑ (fold change) (thyroid): ↑ x2 | TSHR expression ↓ (fold change) (thyroid): TSHR ↓ x2 | Thrombospondin 2 expression ↑ (fold change) (thyroid): 2 ↑ x2 | Transcription factor 7 (T-cell specific, HMG-box) expression ↓ (fold change) (thyroid): box) ↓ x16.5 | VWF precursor expression ↑ (fold change) (thyroid): precursor ↑ x2 | c-AMP responsive element binding protein 1 expression ↓ (fold change) (thyroid): protein 1 ↓ x2 | Endothelial differentiation-related factor 1 expression, direction of change (thyroid, arrow only, factor not given): related factor 1 ↑
